What was measured:
myeloperoxidase [1] = target: T1, myeloperoxidase (Homo sapiens (Human), UniProt P05164); assay: MPO Peroxidation Assay (Amplex Red Assay); type: biochemical; conditions: potency range class
Description: MPO Peroxidation Assay (Amplex Red Assay)
MPO peroxidation activity was measured in 100 mM KPi (pH 7.4) by utilizing the non-fluorescent reagent Amplex Red (Invitrogen Cat. #A12222) which can be oxidized to the highly fluorescent resorufin. Amplex Red is oxidized by the peroxidase action of MPO to resorufin. Reactions were carried out in 50 μL total volume by adding a 25 μL mixture of 200 pM myeloperoxidase and 40 nM H2O2(Sigma #349887) to 100 nL inhibitor in 100% DMSO in a 384 well Perkin Elmer Optiplate. Enzyme and compound were preincubated for ten minutes at rt.
After the ten minute preincubation, 25 μL of an Amplex Red mixture containing 200 μM Amplex Red and 10 mM H2O2 was added to the plate. Kinetic determinations were carried out immediately on a Perkin Elmer Envision (15 minute kinetic read, Ex: 535 nm, Em: 590 nm).
IC50 values were calculated by determining the slope of the linear portion of the kinetic trace (180-540 secs), and using that calculated slope to determine % inhibition occurring at each concentration of inhibitor using the following equation:
(§1) [formula] where A=minimal Y value (activity level of inhibited sample), B=maximal Y value (activity level of uninhibited sample), C=Log IC50, D=Hill Slope, x=concentration of inhibitor. MPO Chlorination Assay (APF Assay)

myeloperoxidase [2] = target: T1, myeloperoxidase; assay: MPO Chlorination Assay (APF Assay); type: biochemical; conditions: potency range class
Description: as §1
MPO chlorination activity was measured in 100 mM KPi (pH 7.4) by utilizing the non-fluorescent reagent Aminophenyl fluorescein (APF, Invitrogen Cat. #A36003). APF is cleaved by (—OCl) to yield the fluorescent compound fluorescein. Reactions were carried out in 50 μL total volume by adding a 25 μL mixture of 200 pM myeloperoxidase and 120 mM NaCl to 100 nL inhibitor in 100% DMSO in a 384 well, non-binding surface clear bottom plate (Corning #3655). Enzyme, inhibitor, and chloride were preincubated for ten minutes at rt.
After the ten minute preincubation, 25 μL of an APF mixture containing […], 120 mM NaCl and 10 μM H2O2 was added to the plate using the internal dispensing system of a Hammatsu FDSS 6000. Kinetic determinations were carried out immediately on the FDSS 6000 (3 minute kinetic read, 1 read every second, ex: 485 nm, em: 535 nm). IC50 values for inhibitors were calculated by taking the slope of the linear portion of the kinetic measurement (20 seconds to ˜80-120 secs). […]
[formula] where A=minimal Y value (activity level of inhibited sample), B=maximal Y value (activity level of uninhibited sample), C=Log IC50, D=Hill Slope, x=concentration of inhibitor.

T1 sequence (P05164 49-745): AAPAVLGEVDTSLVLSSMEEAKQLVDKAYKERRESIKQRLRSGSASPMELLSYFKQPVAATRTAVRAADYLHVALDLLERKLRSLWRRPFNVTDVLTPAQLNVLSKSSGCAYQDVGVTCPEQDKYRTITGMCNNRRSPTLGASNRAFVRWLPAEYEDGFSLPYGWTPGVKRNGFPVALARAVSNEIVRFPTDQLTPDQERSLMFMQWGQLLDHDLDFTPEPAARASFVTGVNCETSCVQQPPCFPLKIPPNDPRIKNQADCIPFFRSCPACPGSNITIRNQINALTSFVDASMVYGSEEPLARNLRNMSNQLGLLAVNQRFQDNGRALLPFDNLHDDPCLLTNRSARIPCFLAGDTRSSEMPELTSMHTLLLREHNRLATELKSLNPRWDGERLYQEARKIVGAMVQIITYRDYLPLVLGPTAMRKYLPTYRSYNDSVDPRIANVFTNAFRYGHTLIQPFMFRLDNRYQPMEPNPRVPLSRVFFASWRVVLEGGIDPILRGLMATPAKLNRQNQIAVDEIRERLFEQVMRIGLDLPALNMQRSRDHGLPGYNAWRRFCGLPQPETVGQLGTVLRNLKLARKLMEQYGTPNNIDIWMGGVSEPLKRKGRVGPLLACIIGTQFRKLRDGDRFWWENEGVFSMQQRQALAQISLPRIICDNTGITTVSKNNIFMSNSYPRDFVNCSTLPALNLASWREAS

SMILES	IC50 (myeloperoxidase [1])	IC50 (myeloperoxidase [2])
Nc1cc(C(CCCC2CCc3ccccc32)c2cnn(Cc3ccc4c(c3)CCNC4)c2)c2nn[nH]c2n1 (stereo not shown) [Example 8, 7-[4-(2,3-dihydro-1H-inden-1-yl)-1-[1-(1,2,3,4-tetrahydroisoquinolin-6-ylmethyl)-1H-pyrazol-4-yl]butyl]-3H-[1,2,3]triazolo[4,5-b]pyridin-5-amine]	1000 to 10000 nM	101 to 999 nM
Nc1cc(C(CCN[C@H]2CC[C@H](c3ccccc3)CC2)c2cnn(CC3CCC3)c2)c2nn[nH]c2n1 (stereo partly shown) [Example 21, 7-{1-[1-(Cyclobutylmethyl)-1H-pyrazol-4-yl]-3-{[(1 r,4r)-4-phenylcyclohexyl]amino}propyl}-3H-[1,2,3]triazolo[4,5-b]pyridin-5-amine]	101 to 999 nM	101 to 999 nM
Nc1cc(C(CCN[C@@H]2CC[C@@H](Cc3ccccc3)C2)c2cnn(CCc3cccc(O)c3)c2)c2nn[nH]c2n1 (stereo partly shown) [Example 53]	1000 to 10000 nM	101 to 999 nM
Nc1cc(C(CCNC23CCC(c4ccccc4)(CC2)[C@@H](O)C3)c2cnn(Cc3cccc(O)c3)c2)c2nn[nH]c2n1 (stereo partly shown) [Example 52]	1 to 100 nM	1 to 100 nM
Nc1cc(C(CCN[C@H]2CC[C@H](c3ccccc3)CC2)c2cnn(Cc3cccc4ccccc34)c2)c2nn[nH]c2n1 (stereo partly drawn) [Example 24, 7-{1-[1-(Naphthalen-1-ylmethyl)-1H-pyrazol-4-yl]-3-{[trans-4-phenylcyclohexyl]amino}propyl}-3H-[1,2,3]triazolo[4,5-b]pyridin-5-amine]	101 to 999 nM	1 to 100 nM
Nc1cc(C(CCN[C@H]2CC[C@H](c3ccccc3)CC2)c2cnn(C3CC3)c2)c2nn[nH]c2n1 (stereo partly drawn) [Example 32, 7-[1-(1-Cyclopropyl-1H-pyrazol-4-yl)-3-{[trans-4-phenylcyclohexyl]amino}propyl]-3H-[1,2,3]triazolo[4,5-b]pyridin-5-amine]	1000 to 10000 nM	101 to 999 nM
Cn1cc(C(CCNCc2ccccc2)c2cc(N)nc3[nH]nnc23)cn1 (stereo not shown) [Example 15, 7-[3-(Benzylamino)-1-(1-methyl-1H-pyrazol-4-yl)propyl]-3H-[1,2,3]triazolo[4,5-b]pyridin-5-amine]	101 to 999 nM	1000 to 10000 nM
Nc1cc(C(CCNC23CCC(c4ccccc4)(CC2)CC3)c2cnn(CCc3cccc(O)c3)c2)c2nn[nH]c2n1 (stereo not shown) [Example 50]	101 to 999 nM	1 to 100 nM
Nc1cc(C(CCN[C@H]2CC[C@H](c3ccccc3)CC2)c2cc[nH]n2)c2nn[nH]c2n1 (stereo partly drawn) [Example 36, 7-[1-(1H-Pyrazol-3-yl)-3-{[trans-4-phenylcyclohexyl]amino}propyl]-3H-[1,2,3]triazolo[4,5-b]pyridin-5-amine]	1000 to 10000 nM	101 to 999 nM
Nc1cc(C(CCN[C@H]2CC[C@H](c3ccccc3)CC2)c2cnn(C3CC(F)C3(F)F)c2)c2nn[nH]c2n1 (stereo partly drawn) [Example 29, 7-(3-{[trans-4-phenylcyclohexyl]amino}-1-[1-(2,2,3-trifluorocyclobutyl)-1H-pyrazol-4-yl]propyl)-3H-[1,2,3]triazolo[4,5-b]pyridin-5-amine]	101 to 999 nM	1 to 100 nM
Nc1cc(C(CCN2C[C@H](Cc3ccccc3)[C@@H](O)C2)c2cnn(Cc3cccc(O)c3)c2)c2nn[nH]c2n1 (stereo partly shown) [Example 43]	1000 to 10000 nM	1 to 100 nM
Nc1cc(C(CCC(c2ccccc2)c2ccccc2)c2cnn(Cc3ccc4c(c3)CCNC4)c2)c2nn[nH]c2n1 (stereo not shown) [Example 5, 7-{4,4-diphenyl-1-[1-(1,2,3,4-tetrahydroisoquinolin-6-ylmethyl)-1H-pyrazol-4-yl]butyl}-3H-[1,2,3]triazolo[4,5-b]pyridin-5-amine]	1000 to 10000 nM	1 to 100 nM
CCCC(c1cnn(Cc2ccc3c(c2)CCNC3)c1)c1cc(N)nc2[nH]nnc12 (stereo not shown) [Example 2, 7-{1-[1-(1,2,3,4-tetrahydroisoquinolin-6-ylmethyl)-1H-pyrazol-4-yl]butyl}-3H-[1,2,3]triazolo[4,5-b]pyridin-5-amine]	101 to 999 nM	101 to 999 nM
Nc1cc(C(CCN[C@H]2CC[C@H](c3ccccc3)CC2)c2cnn(C3CCCC3)c2)c2nn[nH]c2n1 (stereo partly drawn) [Example 23, 7-[1-(1-Cyclopentyl-1H-pyrazol-4-yl)-3-{[trans-4-phenylcyclohexyl]amino}propyl]-3H-[1,2,3]triazolo[4,5-b]pyridin-5-amine]	1000 to 10000 nM	1 to 100 nM
CCC(c1cnn(Cc2cccc(O)c2)c1)c1cc(N)nc2[nH]nnc12 (stereo not shown) [Example 47]	101 to 999 nM	101 to 999 nM
Nc1cc(C(CCN[C@H]2CC[C@H](c3ccccc3)CC2)c2cnn(Cc3ccc(Cl)cc3)c2)c2nn[nH]c2n1 (stereo partly drawn) [Example 19, 7-(1-{1-[(4-Chlorophenyl)methyl]-1H-pyrazol-4-yl}-3-{[trans-4-phenylcyclohexyl]amino}propyl)-3H-[1,2,3]triazolo[4,5-b]pyridin-5-amine]	101 to 999 nM	1 to 100 nM
Nc1cc(C(CCCc2cccc3ccccc23)c2cnn(Cc3ccc4c(c3)CCNC4)c2)c2nn[nH]c2n1 (stereo not shown) [Example 9, 7-[4-(Naphthalen-1-yl)-1-[1-(1,2,3,4-tetrahydroisoquinolin-6-ylmethyl)-1H-pyrazol-4-yl]butyl]-3H-[1,2,3]triazolo[4,5-b]pyridin-5-amine]	1000 to 10000 nM	1 to 100 nM
Nc1cc(C(CCN[C@H]2CC[C@H](c3ccccc3)CC2)c2cnn(C3CCC3)c2)c2nn[nH]c2n1 (stereo partly shown) [Example 20, 7-[1-(1-Cyclobutyl-1H-pyrazol-4-yl)-3-{[(1r,4r)-4-phenylcyclohexyl]amino}propyl]-3H-[1,2,3]triazolo[4,5-b]pyridin-5-amine]	101 to 999 nM	1 to 100 nM
Nc1cc(C(CCCc2ccc3ccccc3c2)c2cnn(Cc3ccc4c(c3)CCNC4)c2)c2nn[nH]c2n1 (stereo not shown) [Example 7, 7-[4-(naphthalen-2-yl)-1-[1-(1,2,3,4-tetrahydroisoquinolin-6-ylmethyl)-1H-pyrazol-4-yl]butyl]-3H-[1,2,3]triazolo[4,5-b]pyridin-5-amine]	101 to 999 nM	1 to 100 nM
Nc1cc(C(CCN[C@H]2CC[C@H](c3ccccc3)CC2)c2cnn(Cc3cc(F)cc(F)c3)c2)c2nn[nH]c2n1 (stereo partly drawn) [Example 26, 7-(1-{1-[(3,5-Difluorophenyl)methyl]-1H-pyrazol-4-yl}-3-{[trans-4-phenylcyclohexyl]amino}propyl)-3H-[1,2,3]triazolo[4,5-b]pyridin-5-amine]	101 to 999 nM	1 to 100 nM
Nc1cc(C(CCN[C@H]2CC[C@H](c3ccccc3)CC2)c2cc[nH]c(=O)c2)c2nn[nH]c2n1 (stereo partly drawn) [Example 35, 4-(1-{5-Amino-3H-[1,2,3]triazolo[4,5-b]pyridin-7-yl}-3-{[trans-4-phenylcyclohexyl]amino}propyl)-1,2-dihydropyridin-2-one]	101 to 999 nM	1 to 100 nM
Nc1cc(C(CCCC2CCCCC2)c2cnn(Cc3ccc4c(c3)CCNC4)c2)c2nn[nH]c2n1 (stereo not shown) [Example 6, 7-{4-cyclohexyl-1-[1-(1,2,3,4-tetrahydroisoquinolin-6-ylmethyl)-1H-pyrazol-4-yl]butyl}-3H-[1,2,3]triazolo[4,5-b]pyridin-5-amine]	101 to 999 nM	1 to 100 nM
Nc1cc(C(CCN[C@@H]2C[C@@H](Cc3ccccc3)[C@H](O)C2)c2cnn(Cc3cccc(O)c3)c2)c2nn[nH]c2n1 (stereo partly drawn) [Example 42, 3-{[4-(1-{5-Amino-3H-[1,2,3]triazolo[4,5-b]pyridin-7-yl}-3-{[(1R,3R,4R)-3-benzyl-4-hydroxycyclopentyl]amino}propyl)-1H-pyrazol-1-yl]methyl}phenol]	1 to 100 nM	1 to 100 nM
Nc1cc(C(CCN[C@H]2CC[C@H](c3ccccc3)CC2)c2cnn(Cc3ccccc3)c2)c2nn[nH]c2n1 (stereo partly shown) [Example 18, 7-[1-(1-Benzyl-1H-pyrazol-4-yl)-3-{[(1r,4r)-4-phenylcyclohexyl]-amino}propyl]-3H-[1,2,3]triazolo 4,5-b pyridin-5-amine]	1 to 100 nM	1 to 100 nM
Nc1cc(C(CCNC2CCC(c3ccccc3)CC2)c2cnn(Cc3ccccc3)c2)c2nn[nH]c2n1 (stereo not shown) [Example 16, 7-[1-(1-Benzyl-1H-pyrazol-4-yl)-3-[(4-phenylcyclohexyl)amino]propyl]-3H-[1,2,3]triazolo[4,5-b]pyridin-5-amine]	101 to 999 nM	1 to 100 nM
Nc1cc(C(CCN[C@H]2CC[C@H](c3ccccc3)CC2)c2cnn(Cc3cccc(OC(F)F)c3)c2)c2nn[nH]c2n1 (stereo partly drawn) [Example 25, 7-[1-(1-{[3-(Difluoromethoxy)phenyl]methyl}-1H-pyrazol-4-yl)-3-{[trans-4-phenylcyclohexyl]amino}propyl]-3H-[1,2,3]triazolo[4,5-b]pyridin-5-amine]	101 to 999 nM	1 to 100 nM

— patent US11059818B2, “Triazolopyridine inhibitors of myeloperoxidase” (BRISTOL-MYERS SQUIBB COMPANY, priority 2016, dated 2021)
